Literature values in PMC5668067, “Phase I dose-escalation study of the c-Met tyrosine kinase inhibitor SAR125844 in Asian patients with advanced solid tumors, including patients with MET-amplified gastric cancer” (Oncotarget, 2017).

Legend:
[1] = system: unselected gastric cancer patients; conditions: cited from earlier work
[2] = system: MET-amplified gastroesophageal junction, gastric, or esophageal tumors; set-up: method as in ref 16 = [16]; 16 Kwak EL LoRusso P Hamid O Janku F Kittaneh M Catenacci DV Chan E Bekaii-Saab TS Amore B Hwang YC Tang R Ngarmchamnanrith G Hong DS Clinical activity of AMG 337, an oral MET kinase inhibitor, in adu; conditions: eight of 13 patients with MET-amplified tumors; cited from earlier work
[3] = system: gastric or gastroesophageal junction cancer; conditions: cited from earlier work
[4] = system: highly MET-amplified (MET:CEP7 >5) gastroesophageal cancers; set-up: method as in PMID 22042947; conditions: cited from earlier work

## COc1cc2c(Oc3ccc(NC(=O)C4(C(=O)Nc5ccc(F)cc5)CC4)cc3F)ccnc2cc1OCCCN1CCOCC1 [foretinib]
[1]
  objective responses: no objective responses

## O=C1NC(=O)[C@@H](c2cn3c4c(cccc24)CCC3)[C@@H]1c1c[nH]c2ccccc12 [tivantinib]
[1]
  objective responses: no objective responses

## COCCOc1cnc2ccn([C@H](C)c3nnc4c(F)cc(-c5cnn(C)c5)cn34)c(=O)c2c1 [AMG 337]
[2]
  partial or near complete response: 62%

## onartuzumab: an anti-c-Met antibody
[3]; regardless of c-Met expression
  survival benefit of addition to chemotherapy: no survival advantage

## C[C@@H](Oc1cc(-c2cnn(C3CCNCC3)c2)cnc1N)c1c(Cl)ccc(F)c1Cl [crizotinib]
[4]
  patients with tumor shrinkage: two of four

## rilotumumab: an anti-HGF antibody
[3]; c-Met-positive gastric or gastroesophageal junction cancer
  clinical benefit combined with chemotherapy: failed to show clinical benefit
